Data reported in patent US10913744B2, “LRRK2 inhibitors and methods of making and using the same” (Dana-Farber Cancer Institute, Inc., priority 2015, dated 2021).
Like-named read-outs stand apart in the source and are kept apart here.

Target: BRSK2 (Homo sapiens (Human), UniProt Q8IWQ3)
Assay: Dundee profiling

Chain of BRSK2 (Q8IWQ3 whole entry, looked up, species assumed): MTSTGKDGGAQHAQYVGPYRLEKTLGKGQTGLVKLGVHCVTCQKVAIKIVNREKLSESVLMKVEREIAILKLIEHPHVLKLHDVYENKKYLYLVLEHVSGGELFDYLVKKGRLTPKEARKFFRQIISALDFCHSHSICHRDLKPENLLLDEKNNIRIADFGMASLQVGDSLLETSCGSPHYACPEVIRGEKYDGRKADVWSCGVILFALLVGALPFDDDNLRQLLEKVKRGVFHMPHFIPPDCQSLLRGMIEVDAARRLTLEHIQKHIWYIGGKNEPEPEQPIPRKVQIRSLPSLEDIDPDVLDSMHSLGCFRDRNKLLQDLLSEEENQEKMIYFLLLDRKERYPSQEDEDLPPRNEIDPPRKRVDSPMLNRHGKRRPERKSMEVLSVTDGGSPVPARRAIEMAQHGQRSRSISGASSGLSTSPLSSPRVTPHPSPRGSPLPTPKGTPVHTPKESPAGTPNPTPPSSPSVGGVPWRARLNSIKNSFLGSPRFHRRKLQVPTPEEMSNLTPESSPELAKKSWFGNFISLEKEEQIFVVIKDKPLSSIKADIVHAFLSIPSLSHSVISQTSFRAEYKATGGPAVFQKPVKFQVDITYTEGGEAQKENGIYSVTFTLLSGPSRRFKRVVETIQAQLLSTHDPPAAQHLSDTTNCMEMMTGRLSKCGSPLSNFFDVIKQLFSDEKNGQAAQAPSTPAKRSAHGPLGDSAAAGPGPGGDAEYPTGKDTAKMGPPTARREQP

SMILES: CNc1nc(Nc2ccc(C(=O)N3CCOCC3)cc2OC)nc2[nH]cc(Cl)c12 [Compound 18, (4-((5-chloro-4-(methylamino)-7H-pyrrolo[2,3-d]pyrimidin-2-yl)amino)-3-methoxyphenyl)(morpholino)methanone]
- remaining activity at 1 µM (read-out: percent remaining enzymatic activity, I1, 1 μM): 110%
- remaining activity at 1 µM (read-out: percent remaining enzymatic activity, I10): 98%
